Test results taken from patent US20080014323A1, “ANTIOXIDANT COMBINATIONS FOR USE IN FEED RATIONS TO IMPROVE ANTIOXIDANT STATUS OF RUMINANTS” (NOVUS INTERNATIONAL INC., priority 2006, published 2008).

Experiments:
[1] = Active oxygen method (AOM): peroxide value of oils or fats after oxidative stress; assay type: physicochemical; conditions: soybean oil subjected to oxidative stress; 500 ppm; FIG. 1
[2] = Oil stability index (OSI) induction time; assay type: physicochemical; conditions: soybean oil; 500 ppm; FIG. 1

CCOc1ccc2c(c1)C(C)=CC(C)(C)N2 [ETX, 6-ethoxy-1,2-dihydro-2,2,4-trimethylquinoline]
peroxide values [1]: about 11 meq
OSI induction time [2]: about 6 hr
